# Test results as given in patent US10894036B2, “Use of marizomib for the treatment of central nervous system (CNS) cancers” (Celgene International II Sàrl, priority 2016, dated 2021).
# “And” between values parts separate entries of the source, which are not always exact repeats. Identical values can stand only once.
# Tests used:
# 20S Proteasome = experiment: 20S proteasome activity (% inhibition) in rodent brain; type: in vivo, mouse; design: 20S Proteasome Activity (% Inhibition), Blood, Trough / 20S Proteasome Activity (% Inhibition), Blood, Peak (2 hr) / 20S Proteasome Activity (% Inhibition), Tumor, Trough / 20S Proteasome Activity (% Inhibition), Tumor, Peak (2 hr): concentration or dose not given beside the values; conditions: tumor-bearing mouse, IV; individual mice 1 and 2; listed as BTZ
# [1] = tested on: malignant glioma stem-like cells; experiment: HIF1-α and VEGF levels in malignant glioma stem-like cells; type: cell-based
# [2] = Phase 1b MRZ + TMZ (+RT) in newly diagnosed G4 MG: adverse events, DLT; type: in vivo, human
# Method: This is a Phase 1b, open-label, 3+3, dose-escalation followed by dose-expansion study in patients with newly diagnosed G4 MG who have not previously received any local or systemic therapy for their G4 MG. The study will examine the effect of the addition of MRZ to standard of care treatment utilizing two study arms: Concomitant Treatment in which MRZ will be combined with TMZ+RT and Adjuvant Treatment in which MRZ will be combined with TMZ. The study will be conducted in two Stages. In Stage 1 (Dose-Escalation): 3 to 6 evaluable patients per MRZ dose cohort will be enrolled in each study arm. […] A total of approximately 48 patients will be enrolled in Stages 1 and 2 combined. Patients may not be enrolled in more than 1 MRZ dose cohort per arm.
# Concomitant Treatment consists of a 6 week (42 day) treatment period, followed by a 4 (−1) week break from treatments. All patients will receive intravenous (IV) MRZ infusion on Days 1, 8, 15, 29, and 36 as a 10 minute infusion. IV hydration will be given prior to the infusion. Focal RT will be administered once daily, 5 days/week, for 30 doses over 6 weeks to a total dose of 60 Gy, starting on Day 1. TMZ will be administered once daily, 7 days/week, for 6 weeks, starting on Day 1, at a dose of 75 mg/m^2. Patients who complete Concomitant Treatment may continue on to Adjuvant Treatment.
# All patients will receive IV MRZ infusion on Days 1, 8, and 15 as a 10 minute infusion, in 28-day cycles. IV hydration will be given prior to the infusion. TMZ will be administered daily for 5 consecutive days, starting on Day 1 of Cycle 1 (C1D1), at a dose of 150 mg/m^2. If tolerated in Cycle 1, the TMZ dose will be increased on Day 1 of Cycle 2 (C2D1) to a dose of 200 mg/m^2.
# [3] = patient 301-C202, action taken None
compound,measurement,setting,value
"CC(C)C[C@H](NC(=O)[C@H](Cc1ccccc1)NC(=O)c1cnccn1)B(O)O [bortezomib, reference compound]","20S Proteasome Activity (% Inhibition), Blood, Peak (2 hr)",20S Proteasome,81% and 83%
same,"20S Proteasome Activity (% Inhibition), Blood, Trough",20S Proteasome,18% and 13%
same,"20S Proteasome Activity (% Inhibition), Tumor, Peak (2 hr)",20S Proteasome,83% and 93%
same,"20S Proteasome Activity (% Inhibition), Tumor, Trough",20S Proteasome,64% and 41%
same,HIF1-α and VEGF levels,[1],induces HIF1-α and VEGF levels
"Cn1nnc2c(C(N)=O)ncn2c1=O [temozolomide, reference compound]","Abdominal pain, Grade ≥3 TEAE, drug related","[2]; human, in vivo",0 (0.0%)
same,"Confusional state, treatment-related TEAE, number of patients","[2]; human, in vivo",0
same,"Confusional state, treatment-related TEAE, percent of patients","[2]; human, in vivo",(0.0%)
same,"Constipation, treatment-related TEAE, number of patients","[2]; human, in vivo",3
same,"Constipation, treatment-related TEAE, percent of patients","[2]; human, in vivo",(15.0%)
same,"Decreased appetite, treatment-related TEAE, number of patients","[2]; human, in vivo",4
same,"Decreased appetite, treatment-related TEAE, percent of patients","[2]; human, in vivo",(20.0%)
same,"Dehydration, Grade ≥3 TEAE, drug related","[2]; human, in vivo",0 (0.0%)
same,"Diarrhoea, treatment-related TEAE, number of patients","[2]; human, in vivo",2
same,"Diarrhoea, treatment-related TEAE, percent of patients","[2]; human, in vivo",(10.0%)
same,"Dizziness, treatment-related TEAE, number of patients","[2]; human, in vivo",2
same,"Dizziness, treatment-related TEAE, percent of patients","[2]; human, in vivo",(10.0%)
same,"Dose reduction, reason Adverse Event","[2]; human, in vivo",1 (5.0%)
same,"Fatigue, Grade ≥3 TEAE, drug related","[2]; human, in vivo",1 (5.0%)
same,"Fatigue, treatment-related TEAE, number of patients","[2]; human, in vivo",11
same,"Fatigue, treatment-related TEAE, percent of patients","[2]; human, in vivo",(55.0%)
same,"Hallucination, Grade ≥3 TEAE, drug related","[2]; human, in vivo",0 (0.0%)
same,"Hallucination, treatment-related TEAE, number of patients","[2]; human, in vivo",0
same,"Hallucination, treatment-related TEAE, percent of patients","[2]; human, in vivo",(0.0%)
same,"Headache, Grade ≥3 TEAE, drug related","[2]; human, in vivo",0 (0.0%)
same,"Headache, treatment-related TEAE, number of patients","[2]; human, in vivo",0
same,"Headache, treatment-related TEAE, percent of patients","[2]; human, in vivo",(0.0%)
same,"Insomnia, Grade ≥3 TEAE, drug related","[2]; human, in vivo",0 (0.0%)
same,"Muscular weakness, treatment-related TEAE, number of patients","[2]; human, in vivo",0
same,"Muscular weakness, treatment-related TEAE, percent of patients","[2]; human, in vivo",(0.0%)
same,"Musculoskeletal pain, Grade ≥3 TEAE, drug related","[2]; human, in vivo",0 (0.0%)
same,"Nausea, treatment-related TEAE, number of patients","[2]; human, in vivo",9
same,"Nausea, treatment-related TEAE, percent of patients","[2]; human, in vivo",(45.0%)
same,Number of Patients with drug Discontinued,"[2]; human, in vivo",0
same,Number of Patients with ≥1 Dose Reduction,"[2]; human, in vivo",1 (5.0%)
same,"Ovarian cyst, Grade ≥3 TEAE, drug related","[2]; human, in vivo",0 (0.0%)
same,"Pelvic infection, Grade ≥3 TEAE, drug related","[2]; human, in vivo",0 (0.0%)
same,"Platelet count decreased, Grade ≥3 TEAE, drug related","[2]; human, in vivo",1 (5.0%)
same,"Platelet count decreased, treatment-related TEAE, number of patients","[2]; human, in vivo",3
same,"Platelet count decreased, treatment-related TEAE, percent of patients","[2]; human, in vivo",(15.0%)
same,"Rash maculo-papular, treatment-related TEAE, number of patients","[2]; human, in vivo",3
same,"Rash maculo-papular, treatment-related TEAE, percent of patients","[2]; human, in vivo",(15.0%)
same,"Vomiting, Grade ≥3 TEAE, drug related","[2]; human, in vivo",0 (0.0%)
same,"Vomiting, treatment-related TEAE, number of patients","[2]; human, in vivo",7
same,"Vomiting, treatment-related TEAE, percent of patients","[2]; human, in vivo",(35.0%)
same,"SAE Dehydration, relationship to drug",[2]; in vivo,Not Suspected/
same,"SAE Fatigue, relationship to drug",[2]; in vivo,Not Suspected/
same,"SAE Hallucination, relationship to drug",[2]; in vivo,Not Suspected/
same,"SAE Nausea, relationship to drug",[2]; in vivo,Not Suspected/
same,"SAE Vomiting, relationship to drug",[2]; in vivo,Not Suspected/
same,"SAE Nephrolithiasis, relationship to drug","[2]; patient 104-C302, action taken None",Not Suspected/
same,"SAE Confusional state, relationship to drug","[2]; patient 301-A202, action taken None",Not Suspected/
same,"SAE Ovarian cyst, relationship to drug","[2]; patient 301-C202, action taken Dose Delayed",Not Suspected/
same,"SAE Convulsion, relationship to drug",[2]; [3],Not Suspected/
same,"SAE Pelvic infection, relationship to drug",[2]; [3],Not Suspected/
